As a reminder, the Ki is a measure of affinity in units of concentration, obtained from inhibition or displacement.

In the assay the target is Beta-secretase 1 (Homo sapiens, UniProt P56817). Kind of assay: Inhibition of human recombinant BACE1 by FRET assay.
Beta-secretase 1, sequence (P56817 whole entry): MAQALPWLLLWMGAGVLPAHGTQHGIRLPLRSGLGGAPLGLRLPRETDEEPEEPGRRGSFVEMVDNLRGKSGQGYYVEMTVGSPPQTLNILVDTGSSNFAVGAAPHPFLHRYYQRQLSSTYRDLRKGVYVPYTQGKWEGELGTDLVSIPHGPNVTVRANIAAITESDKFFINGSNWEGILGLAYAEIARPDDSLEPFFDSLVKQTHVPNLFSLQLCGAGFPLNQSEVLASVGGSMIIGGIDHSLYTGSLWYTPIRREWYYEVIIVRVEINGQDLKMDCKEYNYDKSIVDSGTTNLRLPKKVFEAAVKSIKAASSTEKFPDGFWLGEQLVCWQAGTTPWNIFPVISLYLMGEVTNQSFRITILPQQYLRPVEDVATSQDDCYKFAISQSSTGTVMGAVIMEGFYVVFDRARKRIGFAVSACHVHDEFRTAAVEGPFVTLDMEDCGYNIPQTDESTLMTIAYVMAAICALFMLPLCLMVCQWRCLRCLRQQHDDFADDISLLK

Consider `O=C(Nc1nc(-c2ccc(F)cc2)c[nH]1)c1ccc2c(c1)Nc1ccccc1NC2=O`, for which the Ki is 293 nM.
For `O=C(Nc1ccc(F)cc1)c1ccc2c(c1)Nc1ccccc1NC2=O` the value was 211 nM.
For the compound `O=C(Nc1ccncc1)c1ccc2c(c1)Nc1ccccc1NC2=O`, the Ki stood at 295 nM.
In the case of `O=C(Nc1nc2ccncc2[nH]1)c1ccc2c(c1)Nc1ccccc1NC2=O`, the Ki worked out at 309 nM.
Under `O=C(Nc1nc(-c2ccncc2)c[nH]1)c1ccc2c(c1)Nc1ccccc1NC2=O` stands 348 nM.
For `O=C(Nc1nc2ccc(F)cc2[nH]1)c1ccc2c(c1)Nc1ccccc1NC2=O`, the Ki was found to be 244 nM.
For `C[C@@H](NC(=O)c1cc(NS(C)(=O)=O)cc(C(=O)N[C@@H](Cc2ccccc2)[C@@H](O)CNC2CC2)c1)c1ccc(F)cc1`, the Ki was found to be 10 nM.

(Values after ChEMBL document CHEMBL1154184, “Rational design and synthesis of potent dibenzazepine motifs as beta-secretase inhibitors” (J Med Chem, 2009).)
